≈ marks a conversion by molar mass, not a printed value.
Legend:
E. coli K12 PBP3 = target: T1, E. coli K12 PBP3 (Escherichia coli, UniProt P0AD68); assay: biochemical; format: binding
T1 construct: made in house
Procedure, shortened: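 Fluorescence polarization (ex 490/em 520 nm) competition of inhibitors against Bocillin-FL at 0.1 μM, read up to 60 min. Final PBP levels: E. coli PBP3 1.5 μM; A. baumannii PBP2 2.5 μM, PBP3 0.2 μM in Tris pH 8.0/NaCl/glycerol/Tween 20; N. gonorrhoeae PBP2 […] in Hepes pH 8.0/NaCl/glycerol. EC50 = concentration halving PBP-bound Bocillin-FL.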

P. aeruginosa PBP3 = target: T2, P. aeruginosa PBP3 (Pseudomonas aeruginosa, UniProt G3XD46); assay: Bocillin-FL fluorescence polarization competition binding assay, P. aeruginosa PBP3; details: fluorescence polarization competition binding assay using Bocillin-FL
T2 construct: made in house
Procedure, shortened: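 Binding of boronic acid inhibitors to purified Pseudomonas aeruginosa (PA01) PBP3 was measured by fluorescence polarization competition with Bocillin-FL, a fluorescent penicillin V. Reactions of 80 μl contained 0.75 μM PBP3 and 0.1 μM Bocillin-FL in 50 mM Hepes (pH 8.0), 300 mM NaCl and 5% (v/v) glycerol, in black 384-well plates. FP (Excitation 490 nm, Emission 520 nm) was read for up to 60 minutes. EC50 is the concentration that halves PBP-bound Bocillin-FL.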

[1] = tested on: N. gonorrhoeae ATCC 49226; assay: Liquid broth MIC in Fastidious broth; format: cell-based; details: Neisseria gonorrhoeae, ATCC49226; N. gonorrhoeae strain ATCC 49226; Fastidious broth; read-out: Minimum Inhibitory Concentration, N. gonorrhoeae ATCC 49226
Procedure, shortened: (§1)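 Colonies were swabbed from chocolate agar after 24 h growth and standardised by optical density at 600 nm. Compounds were serially diluted twofold in Fastidious broth, and bacteria added to give 5×10^5 CFU/mL. After about 24 h at 36 °C in 5% CO2, the lowest concentration allowing under 10% growth was taken as MIC.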

N. gonorrhoeae FA1090 = assay: Liquid broth MIC in Fastidious broth; format: cell-based; details: Neisseria gonorrhoeae; N. gonorrhoeae strain FA1090; Fastidious broth; read-out: Minimum Inhibitory Concentration, N. gonorrhoeae FA1090
Procedure, shortened: as §1

N. gonorrhoeae H041 = assay: Liquid broth MIC in Fastidious broth; format: cell-based; details: Neisseria gonorrhoeae, H041, read-out: Minimum Inhibitory Concentration, N. gonorrhoeae H041
Procedure, shortened: (§2)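 Mosaic-PBP2 strains grown 24 h on chocolate agar (36 °C, 5% CO2), then direct-suspended in saline and OD600-adjusted. Twofold compound dilutions in Fastidious broth inoculated at 5×10^5 CFU/mL and incubated ~24 h at 36 °C, 5% CO2. MIC read visually as lowest concentration with <10% growth versus full-growth wells.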

N. gonorrhoeae WHO G = assay: Liquid broth MIC in Fastidious broth; format: cell-based; details: Neisseria gonorrhoeae; N. gonorrhoeae strain WHO G; Fastidious broth; read-out: Minimum Inhibitory Concentration, N. gonorrhoeae WHO G
Procedure, shortened: as §1

N. gonorrhoeae WHO K = assay: Liquid broth MIC in Fastidious broth; format: cell-based; details: Neisseria gonorrhoeae, read-out: Minimum Inhibitory Concentration, N. gonorrhoeae WHO K
Procedure, shortened: as §2

N. gonorrhoeae WHO L = assay: Liquid broth MIC in Fastidious broth; format: cell-based; details: Neisseria gonorrhoeae; N. gonorrhoeae strain WHO L; Fastidious broth; read-out: Minimum Inhibitory Concentration, N. gonorrhoeae WHO L
Procedure, shortened: as §1

N. gonorrhoeae WHO Q = assay: Liquid broth MIC in Fastidious broth; format: cell-based; details: Neisseria gonorrhoeae, read-out: Minimum Inhibitory Concentration, N. gonorrhoeae WHO Q
Procedure, shortened: as §2

N. gonorrhoeae WHO Z = assay: Liquid broth MIC in Fastidious broth; format: cell-based; details: Neisseria gonorrhoeae, read-out: Minimum Inhibitory Concentration, N. gonorrhoeae WHO Z
Procedure, shortened: as §2

T2 sequence (G3XD46 whole entry): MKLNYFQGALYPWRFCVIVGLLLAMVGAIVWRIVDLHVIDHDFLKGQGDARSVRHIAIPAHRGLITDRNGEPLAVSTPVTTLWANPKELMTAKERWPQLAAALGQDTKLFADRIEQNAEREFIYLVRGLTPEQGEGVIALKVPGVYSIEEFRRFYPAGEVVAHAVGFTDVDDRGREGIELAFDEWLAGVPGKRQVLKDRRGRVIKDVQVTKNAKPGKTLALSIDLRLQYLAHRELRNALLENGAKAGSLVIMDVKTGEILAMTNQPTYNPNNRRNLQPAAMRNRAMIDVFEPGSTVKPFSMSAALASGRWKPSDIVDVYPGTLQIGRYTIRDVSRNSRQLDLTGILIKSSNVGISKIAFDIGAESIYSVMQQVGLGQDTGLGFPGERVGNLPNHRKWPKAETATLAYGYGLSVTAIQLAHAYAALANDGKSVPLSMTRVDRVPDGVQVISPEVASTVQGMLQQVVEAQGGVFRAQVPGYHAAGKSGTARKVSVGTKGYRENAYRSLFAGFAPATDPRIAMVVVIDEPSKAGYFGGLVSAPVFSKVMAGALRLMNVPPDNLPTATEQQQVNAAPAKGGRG
T1 sequence (P0AD68 1-577): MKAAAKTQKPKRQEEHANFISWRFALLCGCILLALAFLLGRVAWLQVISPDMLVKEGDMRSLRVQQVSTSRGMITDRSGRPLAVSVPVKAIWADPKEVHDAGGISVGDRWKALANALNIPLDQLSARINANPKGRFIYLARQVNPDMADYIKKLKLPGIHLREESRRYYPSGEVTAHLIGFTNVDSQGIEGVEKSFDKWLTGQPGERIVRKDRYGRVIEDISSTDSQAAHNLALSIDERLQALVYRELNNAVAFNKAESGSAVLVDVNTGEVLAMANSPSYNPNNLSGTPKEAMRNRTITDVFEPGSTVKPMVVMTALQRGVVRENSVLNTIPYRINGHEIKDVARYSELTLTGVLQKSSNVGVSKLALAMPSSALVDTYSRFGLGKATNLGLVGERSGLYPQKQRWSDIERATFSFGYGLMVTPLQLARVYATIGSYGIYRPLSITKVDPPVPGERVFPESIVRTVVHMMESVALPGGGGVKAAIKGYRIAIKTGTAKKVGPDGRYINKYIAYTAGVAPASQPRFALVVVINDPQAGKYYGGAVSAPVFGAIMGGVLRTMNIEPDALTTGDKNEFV

Row | SMILES | EC50 (E. coli K12 PBP3) [µM] | P. aeruginosa PBP3 Potency (P. aeruginosa PBP3) | MIC [1] [µg/mL] | MIC (N. gonorrhoeae FA1090) [µg/mL] | MIC (N. gonorrhoeae H041) [µg/mL] | MIC (N. gonorrhoeae WHO G) [µg/mL] | MIC (N. gonorrhoeae WHO K) [µg/mL] | MIC (N. gonorrhoeae WHO L) [µg/mL] | MIC (N. gonorrhoeae WHO Q) [µg/mL] | MIC (N. gonorrhoeae WHO Z) [µg/mL]
1 | CCN1CCN(C(=O)NC(C(=O)N[C@H]2Cc3cccc(C(=O)O)c3OB2O)c2c(F)cc(O)cc2F)C(=O)C1=O (stereo partly drawn) [Example 105, (3R)-3-(2-(2,6-difluoro-4-hydroxyphenyl)-2-(4-ethyl-2,3-dioxopiperazine-1-carboxamido)acetamido)-2-hydroxy-3,4-dihydro-2H-benzo[e][1,2]oxaborinine-8-carboxylic acid] | < 30 | D (D represents a potency <10 μM) | 4 to 8 (≈ 7.14 to 14.3 µM) | < 0.125 | 16 to 32 (≈ 28.6 to 57.1 µM) | 0.25 to 0.5 (≈ 0.446 to 0.892 µM) | 16 to 32 (≈ 28.6 to 57.1 µM) | 16 to 32 (≈ 28.6 to 57.1 µM) | 4 to 8 (≈ 7.14 to 14.3 µM) | 4 to 8 (≈ 7.14 to 14.3 µM)
2 | CCN1CCN(C(=O)NC(C(=O)N[C@H]2Cc3cccc(C(=O)O)c3OB2O)c2c(F)c(O)cc(O)c2F)C(=O)C1=O (stereo partly drawn) [Example 106, (3R)-3-(2-(2,6-difluoro-3,5-dihydroxyphenyl)-2-(4-ethyl-2,3-dioxopiperazine-1-carboxamido)acetamido)-2-hydroxy-3,4-dihydro-2H-benzo[e][1,2]oxaborinine-8-carboxylic acid] | 30 to 500 | D (D represents a potency <10 μM) | > 64 | 16 to 32 (≈ 27.8 to 55.5 µM) | > 64 | 16 to 32 (≈ 27.8 to 55.5 µM) | > 64 | > 64 | > 64 | > 64
3 | CCN1CCN(C(=O)NC(C(=O)N[C@H]2Cc3cccc(C(=O)O)c3OB2O)c2cccc(CNS(N)(=O)=O)c2)C(=O)C1=O (stereo partly drawn) [Example 107, (3R)-3-(2-(4-ethyl-2,3-dioxopiperazine-1-carboxamido)-2-(3-((sulfamoylamino)methyl)phenyl)acetamido)-2-hydroxy-3,4-dihydro-2H-benzo[e][1,2]oxaborinine-8-carboxylic acid] | 30 to 500 | D (D represents a potency <10 μM) | > 64 | 1 to 2 (≈ 1.62 to 3.24 µM) | > 64 | 16 to 32 (≈ 26 to 51.9 µM) | > 64 | > 64 | > 64 | > 64
4 | CCN1CCN(C(=O)NC(C(=O)N[C@H]2Cc3cccc(C(=O)O)c3OB2O)c2cccc(CN)c2)C(=O)C1=O (stereo partly drawn) [Example 108, (3R)-3-(2-(3-(aminomethyl)phenyl)-2-(4-ethyl-2,3-dioxopiperazine-1-carboxamido)acetamido)-2-hydroxy-3,4-dihydro-2H-benzo[e][1,2]oxaborinine-8-carboxylic acid] | 30 to 500 | B (B represents a potency between 30 μM and 500 μM inclusive) | 16 to 32 (≈ 29.8 to 59.6 µM) | 1 to 2 (≈ 1.86 to 3.72 µM) | > 64 | 4 to 8 (≈ 7.44 to 14.9 µM) | > 64 | > 64 | > 64 | > 64
5 | NCCN1CCN(C(=O)NC(C(=O)N[C@H]2Cc3cccc(C(=O)O)c3OB2O)c2cc(F)c(O)cc2Cl)C(=O)C1=O (stereo partly drawn) [Example 109, (3R)-3-(2-(4-(2-aminoethyl)-2,3-dioxopiperazine-1-carboxamido)-2-(2-chloro-5-fluoro-4-hydroxyphenyl)acetamido)-2-hydroxy-3,4-dihydro-2H-benzo[e][1,2]oxaborinine-8-carboxylic acid] | < 30 | D (D represents a potency <10 μM) | > 64 | 4 to 8 (≈ 6.76 to 13.5 µM) | > 64 | > 64 | > 64 | > 64 | > 64 | > 64
6 | CCN1CCN(C(=O)NC(C(=O)N[C@H]2Cc3cccc(C(=O)O)c3OB2O)c2cncc(O)c2)C(=O)C1=O (stereo partly drawn) [Example 112, (3R)-3-(2-(4-ethyl-2,3-dioxopiperazine-1-carboxamido)-2-(5-hydroxypyridin-3-yl)acetamido)-2-hydroxy-3,4-dihydro-2H-benzo[e][1,2]oxaborinine-8-carboxylic acid] | 30 to 500 | D (D represents a potency <10 μM) | 4 to 8 (≈ 7.61 to 15.2 µM) | 1 to 2 (≈ 1.9 to 3.81 µM) | > 64 | 4 to 8 (≈ 7.61 to 15.2 µM) | > 64 | > 64 | 16 to 32 (≈ 30.5 to 60.9 µM) | 16 to 32 (≈ 30.5 to 60.9 µM)
7 | CCN1CCN(C(=O)NC(C(=O)N[C@H]2Cc3cccc(C(=O)O)c3OB2O)c2cccc(C(=O)O)c2)C(=O)C1=O (stereo partly drawn) [Example 113, (3R)-3-(2-(3-carboxyphenyl)-2-(4-ethyl-2,3-dioxopiperazine-1-carboxamido)acetamido)-2-hydroxy-3,4-dihydro-2H-benzo[e][1,2]oxaborinine-8-carboxylic acid] | < 30 | D (D represents a potency <10 μM) | 4 to 8 (≈ 7.24 to 14.5 µM) | 0.25 to 0.5 (≈ 0.453 to 0.905 µM) | > 64 | 4 to 8 (≈ 7.24 to 14.5 µM) | > 64 | > 64 | 16 to 32 (≈ 29 to 57.9 µM) | 16 to 32 (≈ 29 to 57.9 µM)
8 | NS(=O)(=O)Nc1cccc(C(NC(=O)N2CCN(CCF)C(=O)C2=O)C(=O)N[C@H]2Cc3cccc(C(=O)O)c3OB2O)c1 (stereo partly drawn) [Example 116, (3R)-3-(2-(4-(2-fluoroethyl)-2,3-dioxopiperazine-1-carboxamido)-2-(3-(sulfamoylamino)phenyl)acetamido)-2-hydroxy-3,4-dihydro-2H-benzo[e][1,2]oxaborinine-8-carboxylic acid] | < 30 | D (D represents a potency <10 μM) | 16 to 32 (≈ 25.8 to 51.6 µM) | 0.25 to 0.5 (≈ 0.403 to 0.806 µM) | > 64 | 4 to 8 (≈ 6.45 to 12.9 µM) | 16 to 32 (≈ 25.8 to 51.6 µM) | > 64 | 16 to 32 (≈ 25.8 to 51.6 µM) | 16 to 32 (≈ 25.8 to 51.6 µM)
9 | NCCCN1CCN(C(=O)N[C@@H](C(=O)N[C@H]2Cc3cccc(C(=O)O)c3OB2O)c2cccc(NS(N)(=O)=O)c2)C(=O)C1=O [Example 117, (R)-3-((R)-2-(4-(3-aminopropyl)-2,3-dioxopiperazine-1-carboxamido)-2-(3-(sulfamoylamino)phenyl)acetamido)-2-hydroxy-3,4-dihydro-2H-benzo[e][1,2]oxaborinine-8-carboxylic acid] | 30 to 500 | D (D represents a potency <10 μM) | > 64 | 4 to 8 (≈ 6.33 to 12.7 µM) | > 64 | 16 to 32 (≈ 25.3 to 50.7 µM) | > 64 | > 64 | > 64 | > 64
10 | NCCCN1CCN(C(=O)N[C@H](C(=O)N[C@H]2Cc3cccc(C(=O)O)c3OB2O)c2cccc(NS(N)(=O)=O)c2)C(=O)C1=O [Example 118, (R)-3-((S)-2-(4-(3-aminopropyl)-2,3-dioxopiperazine-1-carboxamido)-2-(3-(sulfamoylamino)phenyl)acetamido)-2-hydroxy-3,4-dihydro-2H-benzo[e][1,2]oxaborinine-8-carboxylic acid] | 30 to 500 | D (D represents a potency <10 μM) | > 64 | 4 to 8 (≈ 6.33 to 12.7 µM) | > 64 | > 64 | > 64 | > 64 | > 64 | > 64

From US20230114728A1 (Venatorx Pharmaceuticals, Inc., priority 2019, published 2023)
